Read-outs that look alike come from different tables or passages of the source.
Tests used:
TLR8 = molecular target: T1, TLR8 (Homo sapiens, UniProt Q9NR97); assay: In vitro human TLR8 binding reporter assay (HEK-Blue, NF-kB/AP1-inducible SEAP); format: cell-based; settings: read-out: TLR8 Agonist EC50
T1 construct: human HEK-Blue cells co-expressing a TLR7 or TLR8 gene
T1 sequence (Q9NR97 27-1041): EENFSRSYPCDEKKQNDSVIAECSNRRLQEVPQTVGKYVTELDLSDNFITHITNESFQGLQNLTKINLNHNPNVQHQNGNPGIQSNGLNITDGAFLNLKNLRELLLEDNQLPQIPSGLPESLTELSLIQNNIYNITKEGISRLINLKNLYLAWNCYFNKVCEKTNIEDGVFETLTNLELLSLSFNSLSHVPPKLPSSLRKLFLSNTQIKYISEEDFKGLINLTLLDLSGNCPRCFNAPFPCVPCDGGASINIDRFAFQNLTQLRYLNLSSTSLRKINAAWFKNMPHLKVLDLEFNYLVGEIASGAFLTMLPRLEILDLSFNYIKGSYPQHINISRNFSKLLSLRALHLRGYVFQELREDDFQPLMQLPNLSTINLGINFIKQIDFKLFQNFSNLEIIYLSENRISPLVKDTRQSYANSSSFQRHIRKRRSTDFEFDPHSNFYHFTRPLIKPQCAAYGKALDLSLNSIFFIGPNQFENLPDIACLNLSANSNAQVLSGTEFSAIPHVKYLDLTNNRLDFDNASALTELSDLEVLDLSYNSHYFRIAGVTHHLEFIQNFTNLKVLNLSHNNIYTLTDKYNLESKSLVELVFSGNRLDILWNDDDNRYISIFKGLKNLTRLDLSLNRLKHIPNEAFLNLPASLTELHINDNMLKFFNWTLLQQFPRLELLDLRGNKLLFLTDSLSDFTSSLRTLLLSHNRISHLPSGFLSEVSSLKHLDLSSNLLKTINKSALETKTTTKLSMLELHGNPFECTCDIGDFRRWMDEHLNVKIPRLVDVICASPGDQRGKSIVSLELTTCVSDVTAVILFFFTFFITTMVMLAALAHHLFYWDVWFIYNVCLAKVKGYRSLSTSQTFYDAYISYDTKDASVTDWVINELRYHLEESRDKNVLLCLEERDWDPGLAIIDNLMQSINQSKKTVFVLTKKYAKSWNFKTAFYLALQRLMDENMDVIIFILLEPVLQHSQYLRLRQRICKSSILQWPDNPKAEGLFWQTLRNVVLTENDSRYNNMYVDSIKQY
In short: (§1)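 Cells are seeded and grown for 24 h. Compounds or DMSO are then added and incubated 18 h at 37 °C. Quanti-Blue is added, and SEAP is read after thirty minutes. EC50 values are normalized, with RLU from 50 μM reference standard setting 100% Ymax.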

TLR7 = molecular target: T2, TLR7 (Homo sapiens, UniProt Q9NYK1); assay: In vitro human TLR7 binding reporter assay (HEK-Blue, NF-kB/AP1-inducible SEAP); format: cell-based; settings: read-out: TLR7 Agonist EC50
T2 construct: human HEK-Blue cells co-expressing a TLR7 or TLR8 gene
T2 sequence (Q9NYK1 27-1049): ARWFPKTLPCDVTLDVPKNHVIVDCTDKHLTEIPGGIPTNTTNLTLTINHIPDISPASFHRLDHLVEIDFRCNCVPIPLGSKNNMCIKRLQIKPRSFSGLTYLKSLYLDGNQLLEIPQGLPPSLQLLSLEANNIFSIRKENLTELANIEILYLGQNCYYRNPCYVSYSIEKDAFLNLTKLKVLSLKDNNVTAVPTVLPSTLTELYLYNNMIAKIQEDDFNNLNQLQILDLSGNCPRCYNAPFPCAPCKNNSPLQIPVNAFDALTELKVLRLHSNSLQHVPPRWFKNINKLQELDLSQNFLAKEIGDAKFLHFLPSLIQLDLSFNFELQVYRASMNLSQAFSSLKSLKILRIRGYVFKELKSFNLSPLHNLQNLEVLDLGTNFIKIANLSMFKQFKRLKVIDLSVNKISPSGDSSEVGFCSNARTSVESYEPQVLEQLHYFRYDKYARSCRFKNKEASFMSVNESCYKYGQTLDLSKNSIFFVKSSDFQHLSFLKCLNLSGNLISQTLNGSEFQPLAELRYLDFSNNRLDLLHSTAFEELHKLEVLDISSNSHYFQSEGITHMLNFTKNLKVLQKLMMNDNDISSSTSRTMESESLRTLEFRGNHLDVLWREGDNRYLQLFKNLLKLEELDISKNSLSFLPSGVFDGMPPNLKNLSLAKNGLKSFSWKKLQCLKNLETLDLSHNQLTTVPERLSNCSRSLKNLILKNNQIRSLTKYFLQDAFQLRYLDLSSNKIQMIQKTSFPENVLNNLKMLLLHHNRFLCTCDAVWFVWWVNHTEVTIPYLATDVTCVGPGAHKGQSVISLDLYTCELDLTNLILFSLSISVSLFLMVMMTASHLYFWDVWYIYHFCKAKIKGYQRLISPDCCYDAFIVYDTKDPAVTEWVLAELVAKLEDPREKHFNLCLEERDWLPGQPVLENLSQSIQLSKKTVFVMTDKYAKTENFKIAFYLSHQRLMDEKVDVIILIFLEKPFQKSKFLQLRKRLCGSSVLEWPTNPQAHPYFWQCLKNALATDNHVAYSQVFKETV
In short: as §1

THP-1 cells = assay: Measurement of IL-1β production, hTRF protocol (second alternative procedure), THP-1 cells; format: cell-based, human; settings: Homo sapiens, THP-1, IL-1β production, read-out: NLRP3 hILIB EC50
In short: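 Compounds, dilution series starting at a final 10 μM, were incubated 2 hours at 37° C with PMA-differentiated THP-1 cells (50 ng/ml overnight; 50,000 cells/well, 2% FBS RPMI). Released IL-1β quantified in supernatant by hTRF kit with 1:40 antibody dilution, 4° C overnight, 665/615 nm ratio.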

| Structure (SMILES) | EC50 (TLR8; activity range class) | EC50 (TLR7; activity range class) | EC50 (THP-1 cells; human) | EC50 (TLR8; activity range) | EC50 (TLR7; activity range) | EC50 (THP-1 cells; human cells) |
| --- | --- | --- | --- | --- | --- | --- |
| CC(Cn1cc2c(N)nc3cc(-c4ccn[nH]4)ccc3c2n1)NC(=O)C(C)(C)C#N (stereo not drawn) [Example 270] | > 100 µM | > 100 µM | 5.18 µM | – | – | – |
| COCCCn1cc2c(N)nc3cc(-c4cc[nH]n4)ccc3c2n1 [Example 303] | > 100 µM | > 100 µM | 0.21 µM | – | – | – |
| CC[C@@H](O)Cn1ncc2c(N)nc3cc(-c4cc[nH]n4)ccc3c21 [Example 400] | – | – | – | > 100 µM | > 100 µM | 1.22 µM |
| N#CC1(C(=O)NCCn2cc3c(n2)c(N)nc2cc(-c4cc[nH]n4)ccc23)CC1 [Example 182] | > 100 µM | > 100 µM | 1.27 µM | – | – | – |
| Nc1nc2cc(-c3cc[nH]n3)ccc2c2cn(CC(=O)Nc3ccccn3)nc12 [Example 28] | > 100 µM | > 100 µM | 1.31 µM | – | – | – |
| Nc1nc2cc(-c3cc[nH]n3)ccc2c2cn(CCNc3ccccn3)nc12 [Example 194, 7-(1H-pyrazol-3-yl)-2-(2-(pyridin-2-ylamino)ethyl)-2H-pyrazolo[3,4-c]quinolin-4-amine] | > 100 µM | > 100 µM | 0.22 µM | – | – | – |
| Nc1nc2cc(-c3cc[nH]n3)ccc2c2cn(CCNC(=O)c3ccc(OC(F)(F)F)cn3)nc12 [Example 67] | > 100 µM | > 100 µM | 0.38 µM | – | – | – |
| CC(CCO)n1cc2c(N)nc3cc(-c4cc[nH]n4)ccc3c2n1 (single isomer, unassigned) [Example 287, 3-(4-amino-7-(1H-pyrazol-3-yl)-2H-pyrazolo[4,3-c]quinolin-2-yl)butan-1-ol] | > 100 µM | > 100 µM | 0.26 µM | – | – | – |
| CC(C)(O)CCn1cc2c(N)nc3cc(-c4ccn[nH]4)ccc3c2n1 [Example 285] | > 100 µM | > 100 µM | 0.63 µM | – | – | – |
| Nc1nc2cc(-c3cc[nH]n3)ccc2c2nn(CCC(F)F)cc12 [Example 354] | > 100 µM | > 100 µM | 0.3 µM | – | – | – |
| Nc1nc2cc(-c3cc[nH]n3)ccc2c2cn(CC(=O)Nc3ccccc3F)nc12 [Example 164] | > 100 µM | > 100 µM | 0.25 µM | – | – | – |
| COC(C)Cn1cc2c(N)nc3cc(-c4cc[nH]n4)ccc3c2n1 (stereo not drawn) [Example 331] | > 100 µM | > 100 µM | 0.08 µM | – | – | – |
| C[C@H](O)Cn1cc2c(N)nc3cc(-c4cc[nH]n4)ccc3c2n1 [Example 369] | > 100 µM | > 100 µM | 0.19 µM | – | – | – |
| COc1ccc(C(=O)NCCn2cc3c(N)nc4cc(-c5cc[nH]n5)ccc4c3n2)nc1 [Example 202] | > 100 µM | > 100 µM | 0.66 µM | – | – | – |
| Nc1nc2cc(-c3cc[nH]n3)ccc2c2nn(C3COCC3O)cc12 (stereo not drawn) [Example 323] | > 100 µM | > 100 µM | 0.78 µM | – | – | – |

Further lines, results first:

| EC50 (TLR8; activity range class) | EC50 (TLR7; activity range class) | EC50 (THP-1 cells; human) | EC50 (TLR8; activity range) | EC50 (TLR7; activity range) | EC50 (THP-1 cells; human cells) | Structure (SMILES) |
| --- | --- | --- | --- | --- | --- | --- |
| – | – | – | > 100 µM | > 100 µM | 9.94 µM | CC(C)(Cn1cc2c(N)nc3cc(-c4ccn[nH]4)ccc3c2n1)C(=O)NCc1ccccn1 [Example 611] |
| – | – | – | > 100 µM | > 100 µM | 0.99 µM | NCc1cc2c(N)nc3cc(-c4ccn[nH]4)ccc3c2[nH]1 [Example 438] |
| – | – | – | > 100 µM | > 100 µM | 0.75 µM | Nc1nc2cc(-c3cc[nH]n3)ccc2c2[nH]c(CN3C[C@@H]4C[C@H]3CO4)cc12 [Example 471] |
| – | – | – | > 100 µM | > 100 µM | 1.81 µM | CC(O)Cn1ncc2c(N)nc3cc(-c4cc[nH]n4)ccc3c21 (stereo not drawn) [Example 428] |
| – | – | – | > 100 µM | > 100 µM | 1.78 µM | CCn1c(CNC(C)=O)cc2c(N)nc3cc(-n4cccn4)ccc3c21 [Example 448] |
| – | – | – | > 100 µM | > 100 µM | 17.5 µM | Nc1nc2cc(-c3cc[nH]n3)ccc2c2nn(CCC(=O)NCc3ccccn3)cc12 [Example 507] |
| – | – | – | > 100 µM | > 100 µM | 0.23 µM | COCCn1cc2c(N)nc3cc(-c4ccn[nH]4)ccc3c2c1 [Example 456] |

Reference: patent US12037344B2, “NLRP3 modulators” (INNATE TUMOR IMMUNITY, INC., priority 2018, dated 2024)
